Data reported in PubChem BioAssay AID330 (DTP/NCI, 2004).
Where “and” joins values, the source holds several entries; their conditions need not be identical. Equal values may be shown once. Inconclusive results and toxic doses are left out. Rule for the calls: active = survival T/C of 150% or more; inactive = T/C below 125% in these data.

Tested on: P388 leukemia ip, CD2F1 mice, survival T/C
Experiment: NCI In Vivo Anticancer Drug Screen. Data for tumor model P388 Leukemia (intraperitoneal) in CD2F1 (CDF1) mice
Conditions: endpoint: median survival time, higher = longer survival
Summary of the method: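 Mice carrying the transplanted tumor received test compound or vehicle. Survival was recorded in each group, and the value is the treated-group measurement divided by that of the vehicle-treated control group.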

[1] = dose: 60.0 mg/kg/injection, schedule: Q01DX005 (ip), vehicle: saline with Tween-80
[2] = dose: 120.0 mg/kg/injection, schedule: Q01DX005 (ip), vehicle: saline with Tween-80
[3] = dose: 240.0 mg/kg/injection, schedule: Q01DX005 (ip), vehicle: saline with Tween-80
[4] = dose: 50.0 mg/kg/injection, schedule: Q01DX005 (ip), vehicle: saline with Tween-80
[5] = dose: 50.0 mg/kg/injection, schedule: Q01DX009 (ip), vehicle: saline with Tween-80
[6] = dose: 60.0 mg/kg/injection, schedule: Q01DX005 (ip), vehicle: Klucel (hydroxypropylcellulose) (HPC)
[7] = dose: 120.0 mg/kg/injection, schedule: Q01DX005 (ip), vehicle: Klucel (hydroxypropylcellulose) (HPC)
[8] = dose: 240.0 mg/kg/injection, schedule: Q01DX005 (ip), vehicle: Klucel (hydroxypropylcellulose) (HPC)
[9] = dose: 100.0 mg/kg/injection, schedule: Q01DX005 (ip), vehicle: saline with Tween-80

Measured: T/C

COc1ccc(N2C(=O)C(C)SC23C(=O)Nc2ccccc23)cc1 (stereo unspecified)
inactive: [1] 99 % of control | [2] 100 % of control | [3] 98 % of control

COC1=CC(=Nc2cc(Br)c(O)c(Br)c2)C=CC1=O
inactive: dose: 6.25 mg/kg/injection, schedule: Q01DX005 (ip), vehicle: saline 105 % of control | dose: 12.5 mg/kg/injection, schedule: Q01DX005 (ip), vehicle: saline 108 % of control | dose: 25.0 mg/kg/injection, schedule: Q01DX005 (ip), vehicle: saline 100 % of control | [4] 95 % of control

O=c1c2ccccc2sc2c([N+](=O)[O-])ccc(NCCNCCO)c12
inactive: [5] 120 % of control and 123 % of control

C[n+]1c2ccccc2c(N=[N+]=[N-])c2ccccc21
inactive: dose: 6.25 mg/kg/injection, schedule: Q01DX009 (ip), vehicle: saline 100 % of control | dose: 12.5 mg/kg/injection, schedule: Q01DX009 (ip), vehicle: saline 98 % of control | dose: 25.0 mg/kg/injection, schedule: Q01DX009 (ip), vehicle: saline 105 % of control | dose: 50.0 mg/kg/injection, schedule: Q01DX009 (ip), vehicle: saline 109 % of control

CC(=O)/C=C1/NC=CN(C(=O)c2ccccc2)C1c1ccccc1 (stereo unspecified)
inactive: [6] 94 % of control | [7] 92 % of control | [8] 87 % of control

Oc1ccccc1C=NCCCN=Cc1ccccc1O
inactive: dose: 18.75 mg/kg/injection, schedule: Q01DX009 (ip), vehicle: saline with Tween-80 103 % of control | dose: 37.5 mg/kg/injection, schedule: Q01DX009 (ip), vehicle: saline with Tween-80 110 % of control | [5] 109 % of control | dose: 75.0 mg/kg/injection, schedule: Q01DX009 (ip), vehicle: saline with Tween-80 111 % of control | dose: 200.0 mg/kg/injection, schedule: Q01DX009 (ip), vehicle: saline with Tween-80 121 % of control | dose: 400.0 mg/kg/injection, schedule: Q01DX009 (ip), vehicle: saline with Tween-80 119 % of control

Cc1ccc(S(=O)(=O)/N=C2\CCN(S(=O)(=O)c3ccc(C)cc3)N2S(=O)(=O)c2ccc(C)cc2)cc1
inactive: dose: 50.0 mg/kg/injection, schedule: Q01DX005 (ip), vehicle: Klucel (hydroxypropylcellulose) (HPC) 97 % of control | dose: 100.0 mg/kg/injection, schedule: Q01DX005 (ip), vehicle: Klucel (hydroxypropylcellulose) (HPC) 94 % of control | dose: 200.0 mg/kg/injection, schedule: Q01DX005 (ip), vehicle: Klucel (hydroxypropylcellulose) (HPC) 97 % of control

CC(C)NCC(O)COc1c2ccccc2nc2ccccc12 (stereo unspecified)
inactive: [4] 101 % of control | [9] 95 % of control | dose: 200.0 mg/kg/injection, schedule: Q01DX005 (ip), vehicle: saline with Tween-80 102 % of control

COc1cccc(C2c3cc4c(cc3OC(N3CCCC3)C2C)OCO4)c1O (stereo unspecified)
inactive: [1] 103 % of control | [2] 90 % of control | [3] 88 % of control

O=c1oc(NC2CCCCC2)nc2ccccc12
inactive: [6] 93 % of control | [7] 92 % of control | [8] 92 % of control

Nc1ccc2c(C(F)(F)F)cc(=O)[nH]c2c1
inactive: dose: 25.0 mg/kg/injection, schedule: Q01DX005 (ip), vehicle: saline with Tween-80 100 % of control | [4] 91 % of control | [9] 92 % of control
